We go through four compounds from PubChem BioAssay AID1845197 (Molecular Pharmacology Branch, DTP, NCI, 2023).

Broadly, the IC50 is the point on the concentration scale where inhibition reaches its midpoint. What is called viability, T/C is the result in the treated group divided by that in the control group, in per cent.

The test system of this test is 349418-098-R tumor spheroid viability. The experiment in a line: Anticancer human tumor 349418-098-R patient-derived lung adenocarcinoma cell line growth inhibition. The settings on record: spheroids with HUVEC and MSC; for viability, T/C: stronger effect = lower value. A digest of the protocol:
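Complex tumor spheroids combined malignant cells with endothelial cells and mesenchymal stem cells. DNA-damaging drugs and DNA repair inhibitors were tested alone and in combination, at half-log dilutions down from clinical Cmax (top 10 microM if Cmax unknown), 0.25% DMSO final.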

[1] abbreviates: curve of first compound, second compound 0.003 µM.

SMILES strings stand for the structures. Values joined by “and” are separate entries in the source; they are usually repeats but may differ in a detail not shown here. Identical values can stand only once.
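Also: spheroids exposed to compound for 7 days before measurement.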
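For viability, T/C in this document: percent of vehicle control viability with 100% = DMSO-treated spheroids.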

Turning to `O=C(c1cc(Cc2n[nH]c(=O)c3ccccc23)ccc1F)N1CCN(C(=O)C2CC2)CC1` + CC[C@@]1(O)C(=O)OCc2c1cc1n(c2=O)Cc2cc3c(CN(C)C)c(O)ccc3nc2-1, the IC50 is 27.4 µM under setting [1]; 23.4 µM (curve of first compound, second compound 0.00949 µM); 4.08 µM (curve of first compound, second compound 0.03 µM); under 0.0949 µM (curve of first compound, second compound 0.0949 µM); under 0.0949 µM (curve of first compound, second compound 0.3 µM). Besides, the viability, T/C was 102% (second compound 0.003 µM, first compound 0.0949 µM); 96.3% (second compound 0.003 µM, first compound 0.3 µM); 98% (second compound 0.003 µM, first compound 0.949 µM); 97.6% (second compound 0.003 µM, first compound 3 µM); 76% (second compound 0.003 µM, first compound 9.49 µM); 47.8% (second compound 0.003 µM, first compound 30 µM). Also, the viability, T/C by setting is: (second compound 0.00949 µM, first compound 0.0949 µM) 99.2%; (second compound 0.00949 µM, first compound 0.3 µM) 101%; (second compound 0.00949 µM, first compound 0.949 µM) 97.8%; (second compound 0.00949 µM, first compound 3 µM) 94.3%; (second compound 0.00949 µM, first compound 9.49 µM) 72.6%; (second compound 0.00949 µM, first compound 30 µM) 43.8%. The viability, T/C (second compound 0.03 µM, first compound 0.0949 µM) was 67.3%; the viability, T/C (second compound 0.03 µM, first compound 0.3 µM) was 72.8%; the viability, T/C (second compound 0.03 µM, first compound 0.949 µM) was 61.5%; the viability, T/C (second compound 0.03 µM, first compound 3 µM) was 58.8%; the viability, T/C (second compound 0.03 µM, first compound 9.49 µM) was 29.8%; the viability, T/C (second compound 0.03 µM, first compound 30 µM) is 12.8%. For the same compound, the viability, T/C was 19.8% (second compound 0.0949 µM, first compound 0.0949 µM); 21.7% (second compound 0.0949 µM, first compound 0.3 µM); 20.8% (second compound 0.0949 µM, first compound 0.949 µM); 18% (second compound 0.0949 µM, first compound 3 µM); 12% (second compound 0.0949 µM, first compound 9.49 µM); 7.08% (second compound 0.0949 µM, first compound 30 µM). For the same compound, the viability, T/C was 3.58% (second compound 0.3 µM, first compound 0.0949 µM); 3.79% (second compound 0.3 µM, first compound 0.3 µM); 4.35% (second compound 0.3 µM, first compound 0.949 µM); 4.53% (second compound 0.3 µM, first compound 3 µM); 3.36% (second compound 0.3 µM, first compound 9.49 µM); 3.46% (second compound 0.3 µM, first compound 30 µM).
Regarding `COc1cc2c(cc1O)CCNC21CSC2c3c(OC(C)=O)c(C)c4c(c3C(COC1=O)N1C(O)C3Cc5cc(C)c(OC)c(O)c5C(C21)N3C)OCO4` (configuration not stated), the viability, T/C is, setting by setting: (compound 94.9 pM) 90.5% [middle of 10 runs]; (compound 0.0003 µM) 88.1% [middle of 10 runs]; (compound 0.000949 µM) 0.55% [middle of 10 runs]; (compound 0.003 µM) 1.4% [middle of 9 runs]. Further, the IC50 (compound alone, run of 10/25/2019) is 0.496 nM [middle of 9 runs].
Take `Cc1cc(C)c(CNC(=O)c2cc(-c3ccc(CN4CCOCC4)cc3)cc3c2cnn3C2CCCC2)c(=O)[nH]1` + COc1cc2c(cc1O)CCNC21CSC2c3c(OC(C)=O)c(C)c4c(c3C(COC1=O)N1C(O)C3Cc5cc(C)c(OC)c(O)c5C(C21)N3C)OCO4: the concentration for half-maximal inhibition (IC50) by setting is: (curve of first compound, second compound 30 pM) over 10 µM; (curve of first compound, second compound 94.9 pM) over 10 µM; (curve of first compound, second compound 0.0003 µM) over 10 µM; (curve of first compound, second compound 0.000949 µM) under 0.0316 µM; under setting [1], under 0.0316 µM. Moreover, the viability, T/C by setting is: (second compound 30 pM, first compound 0.0316 µM) 103%; (second compound 30 pM, first compound 0.1 µM) 97.3%; (second compound 30 pM, first compound 0.316 µM) 105%; (second compound 30 pM, first compound 1 µM) 119%; (second compound 30 pM, first compound 3.16 µM) 114%; (second compound 30 pM, first compound 10 µM) 104%. Further, the viability, T/C is 104% (second compound 94.9 pM, first compound 0.0316 µM); 97.9% (second compound 94.9 pM, first compound 0.1 µM); 102% (second compound 94.9 pM, first compound 0.316 µM); 118% (second compound 94.9 pM, first compound 1 µM); 115% (second compound 94.9 pM, first compound 3.16 µM); 77.7% (second compound 94.9 pM, first compound 10 µM). Further, the viability, T/C (second compound 0.0003 µM, first compound 0.0316 µM) was 98.4%; the viability, T/C (second compound 0.0003 µM, first compound 0.1 µM) is 90.4%; the viability, T/C (second compound 0.0003 µM, first compound 0.316 µM) was 98.1%; the viability, T/C (second compound 0.0003 µM, first compound 1 µM) was 100%; the viability, T/C (second compound 0.0003 µM, first compound 3.16 µM) was 98.6%; the viability, T/C (second compound 0.0003 µM, first compound 10 µM) was 72.6%. Besides, the viability, T/C was 0.39% (second compound 0.000949 µM, first compound 0.0316 µM); 0.81% (second compound 0.000949 µM, first compound 0.1 µM); 0.5% (second compound 0.000949 µM, first compound 0.316 µM); 0.48% (second compound 0.000949 µM, first compound 1 µM); 0.45% (second compound 0.000949 µM, first compound 3.16 µM); 0.53% (second compound 0.000949 µM, first compound 10 µM). For the same compound, the viability, T/C was 1.51% (second compound 0.003 µM, first compound 0.0316 µM); 1.6% (second compound 0.003 µM, first compound 0.1 µM); 1.61% (second compound 0.003 µM, first compound 0.316 µM); 1.74% (second compound 0.003 µM, first compound 1 µM); 2.05% (second compound 0.003 µM, first compound 3.16 µM); 0.75% (second compound 0.003 µM, first compound 10 µM).
In the case of `CC(C)n1c(=O)n(C)c2cnc3cc(F)c(-c4ccc(OCCCN5CCCCC5)nc4)cc3c21`, the viability, T/C (compound 0.0316 µM) was 89% and 110% (2×); the viability, T/C (compound 0.1 µM) is 97.8% and 97.9% and 106%; the viability, T/C (compound 0.316 µM) is 94.4% and 93.9% and 108%; the viability, T/C (compound 1 µM) is 105% and 97.3% and 108%; the viability, T/C (compound 3.16 µM) was 109% and 102% and 105%; the viability, T/C (compound 10 µM) is 56.8% and 48.3% and 85.3%. Besides, under “curve of compound”, the concentration for half-maximal inhibition (IC50) was > 10 µM and 9.63 µM.
